Results published in patent publication US6287834A, “Characterization and use of an isolated uridine diphospho-glucuronosyltransferase” (Endorecherche, Inc., priority 1999, dated 2001).

B1: UGT2B17 (Homo sapiens) (protein)
chain: GKVLVWPTEYSHWINMKTILEELVQRGHEVIVLTSSASILVNASKSSAIKLEVYPTSLTKNDLEDFFMKMFDRWTYSISKNTFWSYFSQLQELCWEYSDYNIKLCEDAVLNKKLMRKLQESKFDVLLADAVNPCGELLAELLNIPFLYSLRFSVGYTVEKNGGGFLFPPSYVPVVMSELSDQMIFMERIKNMIYMLYFDFWFQAYDLKKWDQFYSEVLGRPTTLFETMGKAEMWLIRTYWDFEFPRPFLPNVDFVGGLHCKPAKPLPKEMEEFVQSSGENGIVVFSLGSMISNMSEESANMIASALAQIPQKVLWRFDGKKPNTLGSNTRLYKWLPQNDLLGHPKTKAFITHGGTNGIYEAIYHGIPMVGIPLFADQHDNIAHMKAKGAALSVDIRTMSSRDLLNALKSVINDPIYKENIMKLSRIHHDQPVKPLDRAVFWIEFVMRHKGAKHLRVAAHNLTWIQYHSLDVIAFLLACVATMIFMITKCCLFCFRKLAKTGKKKKRD
B2: uridine diphospho-glucuronosyltransferase 2B17 (protein)
chain: MSLKWMSVFLLMQLSCYFSSGSCGKVLVWPTEYSHWINMKTILEELVQRGHEVIVLTSSASILVNASKSSAIKLEVYPTSLTKNDLEDFFMKMFDRWTYSISKNTFWSYFSQLQELCWEYSDYNIKLCEDAVLNKKLMRKLQESKFDVLLADAVNPCGELLAELLNIPFLYSLRFSVGYTVEKNGGGFLFPPSYVPVVMSELSDQMIFMERIKNMIYMLYFDFWFQAYDLKKWDQFYSEVLGRPTTLFETMGKAEMWLIRTYWDFEFPRPFLPNVDFVGGLHCKPAKPLPKEMEEFVQSSGENGIVVFSLGSMISNMSEESANMIASALAQIPQKVLWRFDGKKPNTLGSNTRLYKWLPQNDLLGHPKTKAFITHGGTNGIYEAIYHGIPMVGIPLFADQHDNIAHMKAKGAALSVDIRTMSSRDLLNALKSVINDPIYKENIMKLSRIHHDQPVKPLDRAVFWIEFVMRHKGAKHLRVAAHNLTWIQYHSLDVIAFLLACVATMIFMITKCCLFCFRKLAKTGKKKKRD

How the values were obtained:
UGT2B17 [1] = molecular target: T1, UGT2B17 (Homo sapiens, UniProt O75795); test: Second glucuronidation assay to determine the amount of enzyme activity (glucuronide formation); assay type: biochemical; conditions: for Glucuronide Formation (pmol/min/mg protein): HK293-UGT2B17 cell homogenate, 6 μM [14C]UDPGA and 494 μM unlabelled UDPGA, 15 minutes at 30° C.; for identified as major endogenous substrates of UGT2B17: 3α and 17β hydroxyandrogens
T1 construct: cell homogenate
T1 sequence (O75795 24-530): B1 chain
Description: Stable Expression of UGT2B17. Human kidney 293 cells were grown in Dubelcco's modified Eagle's medium containing 4.5 g/l glucose, 10 mM HEPES, 110 μg/ml sodium pyruvate, 100 IU of penicillin/ml, 100 μg/ml of streptomycin and 10% fetal bovine serum (FBS) in a humidified incubator, with an atmosphere of 5% CO2, at 37° C. 5 μg of pBK-CMV-UGT2B17 was used to transfect HK293 cells using Lipofectin and following the manufacturer's instructions (Gibco BRL: Burlington, Canada). Forty-eight hours after transfection, stable transfectants were selected in a media containing 800 μg/ml G418.
Glucuronidation Assay Using Cell Homogenates. HK293 cells expressing UGT2B17 were suspended in a Tris buffered saline containing 0.5 mM DTT and were homogenized using a Brinkman polytron. Enzyme assays were performed using [^14 C] UDP-glucuronic acid ([…]), 500 μM of the various aglycones and 150 μg of protein from cell homogenates in 50 mM Tris-HCl (pH 7.5), 10 mM MgCl2, 100 μg/ml phosphatidylcholine and 8.5 mM saccharolactone in a final volume of 100 μl. The enzyme assays were terminated by adding 100 μl of methanol, and the tubes were centrifuged at 14,000 g for 1 minute to remove the precipitated proteins. 100 μl of the aqueous phase was applied onto thin layer chromatography (TLC) plates (0.25 mm thick silica gel, 60 F254 S) (EM Science, Gibbstown, N.J.) and then was chromatographed in a solvent of toluene:methanol:acetic acid in the proportion of 7:3:1. The TLC plates were exposed for four days and the extent of glucuronidation was measured by Phosphorimager (Molecular Dynamics).
In the second assay, the substrate was exposed to […]

UGT2B17 [2] = molecular target: T1, UGT2B17; test: Kinetic analysis of UGT2B17 specificity (Lineweaver-Burk plots, FIGS. 4A and 4B); assay type: biochemical
Description: to FIGS. 4A and 4B are Lineweaver-Burk plots of ADT and DHT, and 3α-DIOL and testosterone (TESTO), respectively; and
A kinetic analysis was also performed to further characterize the specificity of UGT2B17 for ADT, DHT, 3α-DIOL and testosterone.

[3] = substrate: O=C(O)[C@H]1O[C@H](OP(=O)(O)OP(=O)(O)OC[C@H]2O[C@@H](n3ccc(=O)[nH]c3=O)[C@H](O)[C@@H]2O)[C@H](O)[C@@H](O)[C@@H]1O; test: cells, lysate or membranes; conditions: other: 30° C., reaction linear for 30 minutes, pH 7.5
[4] = system: androgen response element reporter in LNCaP cells; test: Androgen response element reporter construct in LNCaP cells transfected with UGT2B17; assay type: cell-based, human
Description: Reducing androgen activity with UGT2B17. LNCaP cells were transfected with UGT2B17 in the presence of a reporter construct controlled by an androgen response element so as the expression of the reporter gene is indicative of androgenic activity.

Row | Molecule | Glucuronide Formation (pmol/min/mg protein) (UGT2B17 [1]) | identified as major endogenous substrates of UGT2B17 (UGT2B17 [1]) | other results
1 | C[C@]12CC[C@@H](O)C[C@@H]1CC[C@@H]1[C@@H]2[C@H](O)C[C@]2(C)[C@@H](O)CC[C@@H]12 [5α-Androstane-3α,11α,17β-triol] | 5 pmol/min/mg protein | – | –
2 | C[C@]12CC[C@@H](O)C[C@@H]1CC[C@@H]1[C@@H]2[C@@H](O)C[C@]2(C)[C@@H](O)CC[C@@H]12 [5α-Androstane-3α,11β,17β-triol] | 8 pmol/min/mg protein | – | –
3 | C[C@]12CC[C@@H](O)C[C@@H]1CC[C@@H]1[C@@H]2CC[C@]2(C)[C@@H](O)CC[C@@H]12 [5α-Androstane-3α,17β-diol] | 15 pmol/min/mg protein | major endogenous substrates | affinity of the enzyme based on Km values (UGT2B17 [2]): similar
4 | C[C@]12CC[C@H](O)C[C@@H]1CC[C@@H]1[C@@H]2CC[C@]2(C)[C@@H](O)CC[C@@H]12 [5α-Androstane-3β,17β-diol] | – | major endogenous substrates | –
5 | C[C@H](O)[C@H]1CC[C@H]2[C@@H]3CC[C@H]4C[C@H](O)CC[C@]4(C)[C@H]3CC[C@]12C [5α-pregnane-3α,20α-diol] | 8 pmol/min/mg protein | – | –
6 | C[C@]12CC[C@@H](O)C[C@H]1CC[C@@H]1[C@@H]2CC[C@]2(C)[C@@H](O)[C@H](O)C[C@@H]12 [5β-Androstane-3α,16α,17β-triol] | 11 pmol/min/mg protein | – | –
7 | C[C@]12CC[C@@H](O)C[C@H]1CC[C@@H]1[C@@H]2CC[C@]2(C)[C@@H](O)CC[C@@H]12 [5β-Androstane-3α,17β-diol] | 14 pmol/min/mg protein | – | –
8 | C[C@]12CC[C@H]3[C@@H](CC=C4C[C@@H](O)CC[C@@]43C)[C@@H]1CC[C@@H]2O [Androst-5-ene-3β,17β-diol] | – | major endogenous substrates | –
9 | C[C@]12CC[C@@H](O)C[C@@H]1CC[C@@H]1[C@@H]2CC[C@]2(C)C(=O)CC[C@@H]12 [Androsterone] | 5 pmol/min/mg protein | major endogenous substrates | affinity of the enzyme based on Km values (UGT2B17 [2]): similar
10 | C[C@]12CCC(=O)C[C@@H]1CC[C@@H]1[C@@H]2CC[C@]2(C)[C@@H](O)CC[C@@H]12 [Dihydrotestosterone] | 14 pmol/min/mg protein | major endogenous substrates | affinity of the enzyme based on Km values (UGT2B17 [2]): similar
11 | C[C@]12CC[C@@H](O)C[C@H]1CC[C@@H]1[C@@H]2CC[C@]2(C)C(=O)CC[C@@H]12 [Etiocholanolone] | 13 pmol/min/mg protein | – | –
12 | C=CCc1ccc(O)c(OC)c1 [Eugenol] | 38 pmol/min/mg protein | – | –
13 | C[C@]12CC[C@H]3[C@@H](CCC4=CC(=O)CC[C@@]43C)[C@@H]1CC[C@@H]2O [Testosterone] | 9 pmol/min/mg protein | major endogenous substrates | affinity of the enzyme based on Km values (UGT2B17 [2]): similar
14 | Oc1cccc2ccccc12 [l-naphtol] | 7 pmol/min/mg protein | – | –
15 | Oc1ccccc1-c1ccccc1O [o,o' biphenyl] | 7 pmol/min/mg protein | – | –
16 | Oc1ccc(-c2ccc(O)cc2)cc1 [p,p' biphenyl] | 5 pmol/min/mg protein | – | –
17 | O=[N+]([O-])c1ccc(O)cc1 [p-nitrophenol] | 4 pmol/min/mg protein | – | –
18 | B1 | – | – | Km [3]: 200 µM
19 | B2 | – | – | expression of the reporter gene (indicative of androgenic activity) [4]: decreased expression of the reporter gene
